Data published in patent publication US20110190365A1, “Insecticidal 4-phenyl-1H-pyrazoles” (Bayer Crop Science AG, priority 2008, published 2011).
Read-outs that look alike come from different tables or passages of the source.

Assays:
[1] = test system: stage 3 Spodoptera litura larvae; assay: Spodoptera litura larvae test; format: in vivo; conditions: active compound concentration 500 ppm, sweet potato leaf dip, after 7 days, mean of two dishes
Method: Spodoptera litura Larvae Test
(§1) Solvent: 3 parts by weight of dimethylformamide Emulsifier: 1 part by weight of polyoxyethylene alkylphenyl ether
To prepare a suitable active compound, 1 part by weight of active compound is mixed with the stated amount of solvent comprising the stated amount of emulsifier, and the mixture is diluted with water to the specified concentration.
Sweet potato leaves are dipped into the sample solution diluted with water to the specified concentration and the leaves treated in this manner are, after the solution adhering to the leaves has dried in air, transferred into a laboratory dish which has a diameter of 9 cm and in which there are 10 stage 3 Spodoptera litura larvae. The dish is then placed in a temperature-controlled room at 25° C., sweet potato leaves are then added to the dish on day two and day four and the number of dead insects is determined after 7 days and used to calculate the insecticidal ratio.
The results are the means of two laboratory dishes per group in this test.

[2] = test system: stage 2 Aulacophora femoralis larvae; assay: Aulacophora femoralis test (spray test); format: in vivo; conditions: active compound concentration 500 ppm, cucumber leaf dip, after 7 days
Method: Aulacophora femoralis Test (Spray Test)
as §1
To prepare a suitable active compound formulation, 1 part by weight of the active compound is mixed with the stated amount of solvent comprising the stated amount of emulsifier, and the mixture is diluted with water to a specified concentration.
Cucumber leaves are dipped into a dilute aqueous solution of an active compound at the specified concentration prepared in the same manner as in the test described above, air-dried and transferred into a plastic dish with sterilized black soil. 5 stage 2 Aulacophora femoralis larvae are transferred into this dish. The dish is then placed into a temperature-controlled room at 25° C. After 7 days, the number of dead larvae is counted to calculate the mortality.

[3] = test system: caterpillars of the armyworm (Spodoptera frugiperda); assay: Spodoptera frugiperda test (SPODFR spray treatment); format: in vivo; conditions: application rate 500 g/ha, maize leaf discs sprayed, after 7 days
Method: Spodoptera frugiperda Test (SPODFR Spray Treatment)
(§2) Solvent: 78.0 parts by weight of acetone • • 1.5 parts by weight of dimethylformamide Emulsifier: 0.5 part by weight of alkylaryl polyglycol ether
(§3) To produce a suitable preparation of active compound, 1 part by weight of active compound is mixed with the stated amounts of solvent and emulsifier, and the concentrate is diluted with emulsifier-containing water to the desired concentration.
Discs of maize leaves (Zea mays) are sprayed with an active compound preparation of the desired concentration and, after drying, populated with caterpillars of the armyworm (Spodoptera frugiperda).
After 7 days, the effect in % is determined 100% means that all caterpillars have been killed; 0% means that none of the caterpillars have been killed.

[4] = log P by HPLC on a reversed-phase column (C18), EEC Directive 79/831 Annex V.A8; format: physicochemical
Method: The stated log P values were determined in accordance with EEC Directive 79/831 Annex V.A8 by HPLC (High Performance Liquid Chromatography) using a reversed-phase column (C18).

[5] = test system: larvae of the mustard beetle (Phaedon cochleariae); assay: Phaedon cochleariae test (PHAECO spray treatment); format: in vivo; conditions: application rate 500 g/ha, Chinese cabbage leaf discs sprayed, after 7 days; for pest or weed control at 500 g/ha: Phaedon cochleariae, foliar, 168 h, read-out: effect in % (beetle larvae killed)
Method: Phaedon cochleariae Test (PHAECO Spray Treatment)
as §2, §3
Discs of Chinese cabbage (Brassica pekinensis) are sprayed with an active compound preparation of the desired concentration and, after drying, populated with larvae of the mustard beetle (Phaedon cochleariae).
After 7 days, the effect in % is determined. 100% means that all beetle larvae have been killed; 0% means that none of the beetle larvae have been killed.

[6] = test system: green peach aphid (Myzus persicae); assay: Myzus persicae test (MYZUPE spray treatment); format: in vivo; conditions: application rate 500 g/ha, Chinese cabbage leaf discs sprayed, after 6 days
Method: Myzus persicae Test (MYZUPE Spray Treatment)
as §2, §3
Discs of Chinese cabbage (Brassica pekinensis) infected by all stages of the green peach aphid (Myzus persicae) are sprayed with an active compound preparation of the desired concentration.
After 6 days, the effect in % is determined. 100% means that all of the aphids have been killed; 0% means that none of the aphids have been killed.

[7] = HPLC, reversed-phase C18, mobile phase with formic acid, read-out: log P (HCOOH)
[8] = HPLC, reversed-phase C18, mobile phase with formic acid

In the case of `O=C(NCc1ccccn1)c1ccc(-n2cc(-c3cc(Cl)cc(Cl)c3)c(C(F)(F)F)n2)cc1[N+](=O)[O-]` [I-A-Q2-003], the “kill of the insect larvae” value [1] is reported as 100%.

With `O=C(NCC(F)(F)F)c1ccc(-n2cc(-c3cc(C(F)(F)F)cc(C(F)(F)F)c3)c(C(F)(F)F)n2)cc1C(F)(F)F` [I-A-Q2-010] the “kill of the insect larvae” value [1] was 100% and the “kill of the insects” value [2] was 100%.

In the case of `CCOC(=O)c1ccc(-n2cc(-c3cc(Cl)cc(Cl)c3)c(C(F)(F)F)n2)cc1C(F)(F)F` [I-A-Q4-001, Ethyl 4-[4-(3,5-dichlorophenyl)-3-trifluoromethylpyrazol-1-yl]-2-trifluoromethylbenzoate], the “kill of the insect larvae” value [1] is reported as 80%.

In the case of `CC(NC(=O)c1ccc(-n2cc(-c3cc(Cl)cc(Cl)c3)cn2)cc1C(F)(F)F)C(F)(F)F` (stereo not drawn) [I-A-Q2-006], the “kill of the insect larvae” value [1] is reported as 100%.

With `CC(NC(=O)c1ccc(-n2cc(-c3cc(Cl)cc(Cl)c3)c(C(F)(F)F)n2)cc1C(F)(F)F)C(F)(F)F` (stereo not drawn) [I-A-Q2-005] the “kill of the insect larvae” value [1] was 100% and the “kill of the insects” value [2] was 100%.

In the case of `CSc1cc(-n2nc(C(F)(F)F)c(-c3cc(Cl)cc(Cl)c3)c2N)ccc1C(=O)NCc1ccccn1` [I-A-Q2-409], the “effect in % (caterpillars killed)” value [3] is reported as 83% and the “log P (HCOOH)” value ([4]; HCOOH) is reported as “I-A-Q2-409: log P (HCOOH): 3.38”.

In the case of `O=C(NCC(F)(F)F)c1ccc(-n2cc(-c3cc(Cl)cc(Cl)c3)c(C(F)(F)F)n2)cc1C(F)(F)F` [I-A-Q2-002, 4-[4-(3,5-Dichlorophenyl)-3-trifluoromethylpyrazol-1-yl]-N-(2,2,2-trifluoroethyl)-2-trifluoromethylbenzamide], the “kill of the insect larvae” value [1] is reported as 100%, the chromatographic logP ([4]; pH 2, read-out: log P (pH 2)) is reported as 5.16 and the chromatographic logP ([4]; pH 7.5, read-out: log P (pH 7.5)) is reported as 5.14. For the same compound, the “kill of the insects” value [2] was 100%.

With `O=C(NCc1ccccn1)c1ccc(-n2cc(-c3cc(Cl)cc(Cl)c3)c(C(F)(F)F)n2)cc1C(F)(F)F` [I-A-Q2-001] the “kill of the insect larvae” value [1] was 100%, the “log P (pH 2)” value ([4]; pH 2) was “I-A-Q2-001: log P (pH 2): 4.02” and the “log P (pH 7.5)” value ([4]; pH 7.5) was “log P (pH 7.5): 4.74”.

Compound `Cc1cc(-n2nc(C(F)(F)F)c(-c3cc(Cl)cc(Cl)c3)c2N)ccc1C(=O)NCc1ccccn1` [I-A-Q2-012, 4-[5-Amino-4-(3,5-dichlorophenyl)-3-trifluoromethylpyrazol-1-yl]-2-methyl-N-pyridin-2-ylmethylbenzamide] has a chromatographic logP [4, 7] of 3.35 and a pest or weed control at 500 g/ha [5] greater than 80%.

With `N#Cc1cc(-n2nc(C(F)(F)F)c(-c3cc(Cl)cc(C(F)(F)F)c3)c2N)ccc1-n1cncn1` [I-A-Q1-001, 5-[5-Amino-4-(3-chloro-5-trifluoromethylphenyl)-3-trifluoromethylpyrazol-1-yl]-2-[1,2,4]triazol-1-ylbenzonitrile] the chromatographic logP [4, 7] was 3.92 and the pest or weed control at 500 g/ha [5] was greater than 80%.

In the case of `Cc1cc(-n2nc(C(F)(F)F)c(-c3ccccc3Cl)c2N)ccc1C(=O)NC(C)c1ccccn1` (stereo not drawn) [I-A-Q2-415], the “log P (HCOOH)” value ([4]; HCOOH) is reported as “I-A-Q2-415: log P (HCOOH): 2.71” and the “effect in % (beetle larvae killed)” value [5] is reported as 100%.

In the case of `O=[N+]([O-])c1ccc(-n2cc(-c3cc(Cl)cc(Cl)c3)c(C(F)(F)F)n2)cc1C(F)(F)F` [I-A-Q4-006], the “kill of the insect larvae” value [1] is reported as 80%.

In the case of `Cc1cc(-n2nc(C(F)(F)F)c(-c3ccccc3Br)c2N)ccc1C(=O)NCc1ccccn1` [I-A-Q2-421], the “log P (HCOOH)” value ([4]; HCOOH) is reported as “I-A-Q2-421: log P (HCOOH): 2.53” and the “effect in % (beetle larvae killed)” value [5] is reported as 100%.

With `N#Cc1cc(-n2nc(C(F)(F)F)c(-c3cc(Cl)cc(Cl)c3)c2N)ccc1-n1cnc(Cl)n1` [I-A-Q1-091] the “effect in % (caterpillars killed)” value [3] was 100%, the “log P (HCOOH)” value [4, 8] was “I-A-Q1-091: log P (HCOOH): 4.17” and the “effect in % (beetle larvae killed)” value [5] was 100%.

With `N#Cc1cc(-n2nc(C(F)(F)F)c(-c3cc(Cl)cc(C(F)(F)F)c3)c2N)ccc1-n1nc[nH]c1=O` [I-A-Q1-002, 5-[5-Amino-4-(3-chloro-5-trifluoromethylphenyl)-3-trifluoromethylpyrazol-1-yl]-2-(5-oxo-4,5-dihydro[1,2,4]triazol-1-yl)benzonitrile] the chromatographic logP [4, 7] was 3.45 and the pest or weed control at 500 g/ha [5] was greater than 80%.

With `Cc1cc(-n2nc(C(F)(F)F)c(-c3ccccc3Br)c2N)ccc1C(=O)NCc1ncccn1` [I-A-Q2-419] the “log P (HCOOH)” value ([4]; HCOOH) was “I-A-Q2-419: log P (HCOOH): 2.68” and the “effect in % (beetle larvae killed)” value [5] was 100%.

For `N#Cc1cc(-n2nc(C(F)(F)F)c(-c3cc(Cl)cc(C(F)(F)F)c3)c2N)ccc1F` [I-A-Q4-009, 5-[5-Amino-4-(3-chloro-5-trifluoromethylphenyl)-3-trifluoromethylpyrazol-1-yl]-2-fluorobenzonitrile], the chromatographic logP [4, 7] was 4.54 and the pest or weed control at 500 g/ha [5] was greater than 80%.

In the case of `Cc1cc(-n2nc(C(F)(F)F)c(-c3cccc(Br)c3)c2N)ccc1C(=O)NCc1ncccn1` [I-A-Q2-417], the “log P (HCOOH)” value ([4]; HCOOH) is reported as “I-A-Q2-417: log P (HCOOH): 3.13” and the “effect in % (beetle larvae killed)” value [5] is reported as 100%.

For `Cc1cc(-n2nc(C(F)(F)F)c(-c3ccccc3Br)c2N)ccc1C(=O)NC(C)c1ccccn1` (stereo not drawn) [I-A-Q2-420], the “log P (HCOOH)” value ([4]; HCOOH) was “I-A-Q2-420: log P (HCOOH): 2.81” and the “effect in % (beetle larvae killed)” value [5] was 100%.

Work on `Cc1cc(-n2nc(C(F)(F)F)c(-c3cc(Cl)cc(Cl)c3)c2I)ccc1C(=O)NCc1ccccn1` [I-A-Q2-025, 4-[4-(3,5-Dichlorophenyl)-5-iodo-3-trifluoromethylpyrazol-1-yl]-2-methyl-N-pyridin-2-ylmethylbenzamide] yielded a chromatographic logP [4, 7] of 4.29 and a pest or weed control at 500 g/ha [5] greater than 80%.

In the case of `CCS(=O)(=O)c1ncn(-c2ccc(-n3nc(C(F)(F)F)c(-c4cc(Cl)cc(Cl)c4)c3N)cc2C#N)n1` [I-A-Q1-087], the “log P (HCOOH)” value [4, 8] is reported as “I-A-Q1-087: log P (HCOOH): 3.78” and the “effect in % (beetle larvae killed)” value [5] is reported as 100%.

With `CC[S+]([O-])c1ccn(-c2ccc(-n3nc(C(F)(F)F)c(-c4cc(Cl)cc(Cl)c4)c3N)cc2C#N)n1` (stereo not drawn) [I-A-Q1-090] the “log P (HCOOH)” value [4, 8] was “I-A-Q1-090: log P (HCOOH): 3.47” and the “effect in % (beetle larvae killed)” value [5] was 100%.

In the case of `N#Cc1cc(-n2nc(C(F)(F)F)c(-c3cc(Cl)cc(Cl)c3)c2N)ccc1-n1cnc(S)n1` [I-A-Q1-089], the “effect in % (aphids killed)” value [6] is reported as 90%, the “log P (HCOOH)” value [4, 8] is reported as “I-A-Q1-089: log P (HCOOH): 3.53” and the “effect in % (beetle larvae killed)” value [5] is reported as 83%.

`Cc1cc(-n2nc(C(F)(F)F)c(-c3cc(Cl)cc(Cl)c3)c2Cl)ccc1C(=O)NC(C)C(F)(F)F` (stereo not drawn) [I-A-Q2-022, 4-[5-Chloro-4-(3,5-dichlorophenyl)-3-trifluoromethylpyrazol-1-yl]-2-methyl-N-(2,2,2-trifluoro-1-methylethyl)benzamide] gave a chromatographic logP [4, 7] of 5.59 and a pest or weed control at 500 g/ha [5] greater than 80%.

In the case of `CSc1c(-c2cc(Cl)cc(Cl)c2)c(C(F)(F)F)nn1-c1ccc(C(=O)NC(C)C(F)(F)F)c(C)c1` (stereo not drawn) [I-A-Q2-027, 4-[4-(3,5-Dichlorophenyl)-5-methylsulphanyl-3-trifluoromethylpyrazol-1-yl]-2-methyl-N-(2,2,2-trifluoro-1-methylethyl)benzamide], the chromatographic logP [4, 7] is reported as 5.48 and the pest or weed control at 500 g/ha [5] is reported as greater than 80%.
